Six compounds from US7582778B2, “Podophyllotoxin” (Universitatsklinikum Charite der Humboldt-Universitat zu, priority 2001, dated 2009) can be followed below.

One data set relates to SW480 colon carcinoma. The following applies: SW480, vs VP-16. On the procedure:
(§1) The cytotoxic effect of ProVP-16 I and II was evaluated against a panel of cell lines by triplicate determinations of IC50 concentrations for both prodrugs against each cell line (A). […] Bars represent mean values ±SD.

For the next data set, the system named is MOVP-3 cells. Put plainly: Cell cycle analysis (propidium iodide, FACS), MOVP-3. Format: cell-based, human. To be noted: 0.5 μM, up to 72 h. On the procedure: (§2) Cells were harvested at indicated time points (n=3), fixed, stained with propidium iodide and analyzed by FACS as described in Materials and Methods. Per cent cells in pre G1 (apoptosic cells) were calculated from DNA histograms.
(§3) Cell cycle analysis: Distinct phases of the cell cycle were determined in a standard assay using propidium iodide. […] At indicated time points, cells were harvested and fixed in 4.5 ml ethanol (75%, −20° C.) for at least 12 h (4° C.). Cells were washed in PBS (pH 7.4) and resuspended in 250 μl PBS containing RNAse (0.3 mg/ml) and propidium iodide (50 μg/ml) and incubated in the dark (30 min, RT). The DNA histograms defining distinct phases of the cell cycle were subsequently determined in duplicates by FACS analysis and average results were expressed as per cent.

For data set [1] the following is noted: human serum, pH 7.3, 37° C.
Data set [2] relates to multidrug resistant MOVP-3 cells. Put plainly: XTT cytotoxicity assay, multidrug resistant MOVP-3 subline. To be noted: for IC50: MOVP-3 cells; for cross resistance of MOVP-3 cells: from IC50 values MOVP-3 vs Molt-3. Format: cell-based, human. How it is done: MDR-1 gene expression was determined by RT-PCR analysis on total RNA isolated from MOVP-3 and Molt-3 cells, respectively (6A). Expression of GAPDH was used as a control for the integrity of the cDNA. […] (6C) Cross-resistance of MOVP-3 cells against MDR-1 drugs (doxorubicin, melphalan, vinblastine and paclitaxel) was calculated from IC50 values (n=3) as described in 6B).
Cells: Tumor cell lines were grown in RPMI, 10% FCS (Nalm-6, Reh, Molt-3, Jurkat, HL-60, K562, HeLa, CEM, A2780, SW480) or DMEM, 10% FCS (NXS2, SK-N-SH, HT-29) in the presence of 100 IU/ml penicillin/streptomycin (P/S) and propagated under standard tissue culture conditions (5% CO2, 37° C.). All cell lines were obtained from ATCC, Rockville, Md. except NXS2 which was previously described (Lode H N, Xiang R, Varki N M, Dolman C S, Gillies S D, Reisfeld R A. Targeted interleukin-2 therapy for spontaneous neuroblastoma metastases to bone marrow. Journal of the National Cancer Institute. 1997; 89:1586-1594.) and VCR100, ADR5000 and A2780 which were kindly provided by James Beck, Greifswald, Germany (Beck J, Handgretinger R, Dopfer R, Klingebiel T, Niethammer D, Gekeler V. Expression of mdrl, mrp, topoisomerase II alpha/beta, and cyclin A in primary or relapsed states of acute lymphoblastic leukaemias. Br J Haematol. 1995; 89:356-363; Beck J F, Bohnet B, Brugger D, et al. Expression analysis of protein kinase C isozymes and multidrug resistance associated genes in ovarian cancer cells. Anticancer Res. 1998; 18:701-705.).
In general terms: Tetrazolium assays rely on reduction of a dye to a coloured formazan, in cell work by metabolically active cells.

In the next data set the test system is Molt-3 T-cell leukemia. Put plainly: XTT cytotoxicity assay, Molt-3. How it is done:
as §1
At the time points indicated, cell viability was determined in triplicate by the XTT assay as described in Materials and Methods. […] Results were plotted as a semilogarithmic function of drug concentration.

For the next data set, the system named is Molt-3 parental cells. Put plainly: Cell cycle analysis (propidium iodide, FACS), Molt-3. Type of data set: cell-based, human. To be noted: Molt-3 cells, 0.5 μM, up to 72 h. On the procedure:
as §2, §3

Data set [3] relates to NXS2 murine neuroblastoma. Put plainly: XTT cytotoxicity assay, NXS2. Type of data set: cell-based. How it is done: as §1
Data set [4] deals with porcine liver carboxyl ester hydrolase. To be noted: porcine liver carboxyl ester hydrolase, pH 7.3, 37° C.
The subject of data set [5] is CHO Chinese hamster ovary. Put plainly: XTT cytotoxicity assay, CHO. Type of data set: cell-based.
Experimental: (§4) Cytotoxicity assay: Cytotoxicity was determined by the XTT tetrazolium/formazan assay as previously described (Scudiero D A, Shoemaker R H, Paull K D, et al. Evaluation of a soluble tetrazolium/formazan assay for cell growth and drug sensitivity in culture using human and other tumor cell lines. Cancer Res. 1988; 48:4827-4833.). Briefly, cells were seeded in 96 flat bottom well plates at a density of 10^4/well in 100 μl media and exposed to drug concentrations ranging from 10^−4 to 10^−12 M. At the indicated time points (6-72 hr), cell viability was assessed by adding 50 μl XTT-reagent (1 mg/ml in serum free RPMI) activated with 0.2% v/v PMS (1.53 mg/ml in PBS) incubated at 37° C. for 4 h. Plates were analyzed in a Thermomax (Molecular Devices) micro plate reader at 450 nm. OD values were plotted as a function of drug concentration and the curves were integrated using the softmax software to obtain the IC50 concentration values.
The conditions of data set [6]: for kobs: PBS buffer. On the procedure: ProVP-16 I was incubated in THF/2% HCl and samples were periodically analyzed by HPLC at the indicated time points (A). Hydrolytic activation of ProVP-16 II was determined in phosphate buffered saline (PBS) a t the pH levels indicated (B). ProVP-16 I (3 mM) was incubated in PBS solutions and samples were periodically analyzed by HPLC. The percent conversion was calculated from areas under the curve determined by peak integration.

Data set [7] relates to Hamms human colon carcinoma cells. Put plainly: XTT cytotoxicity assay, Hamms. Format: cell-based.
Experimental: as §4
The test system of the next data set is Molt-3/MDR-1 cells. To be noted: stable transfection with pMDR-IRESpuro.
A further data set addresses MDR-1 p-glycoprotein (Homo sapiens, UniProt P08183). To be noted: MOVP-3 cells; for effect on the decrease in FL-1 signal (JC-1 efflux): coincubation with 3×10^−4 M.
Data set [8] can be described thus: Conversion of ProVP-16 I to ProVP-16 II under acid conditions (HPLC). Type of data set: physicochemical. To be noted: acid conditions (THF, 2N HCL).
Experimental: ProVP-16 I was incubated in THF/2% HCl and samples were periodically analyzed by HPLC at the indicated time points (A). […] ProVP-16 I (3 mM) was incubated in PBS solutions and samples were periodically analyzed by HPLC. The percent conversion was calculated from areas under the curve determined by peak integration.
How the values of data set [9] were obtained: The body weight was determined for each animal over time and calculated as per cent of total weight observed on day 0. An event as indicated by Kaplan Maier plots is defined by loss of body weight greater than 20%.
Body weights and survival were monitored over time.

In a further data set the test system is MOVP-3 primary tumors. Put plainly: Anti-tumor effect in a multidrug resistant T-cell leukemia xenograft model. Type of data set: in vivo, SCID mice. The following applies: 15 mg/kg i.p. On the procedure: The anti-tumor effect of ProVP-16 II therapy was determined in a multidrug resistant xenograft model (B,C). SCID mice (n=7) were injected s.c. with 5×10^6 MOVP-3 cells and primary tumors of 250 mm^3 average size were established 55 days after inoculation. […] Tumor growth was monitored by microcaliper measurements and tumor size was calculated as described in Materials and Methods (B). […] The body weight of treated animals was determined over time and calculated as per cent of body weight on day 57 (C).
Anti-tumor effect in a T-cell leukemia xenograft model: Primary tumors were induced by injection of 5×10^6 MOVP 3 cells in 100 μl PBS (pH 7.4) into the skin of the left lateral flank of each SCID mouse. Established primary tumors were palpable 55 days after injection. […] Each mouse received a total of 7 injections on days 55,57,59,69,71,87,90 after tumor cell inoculation. Primary tumor size was determined over time by micro caliper measurements and volumes were calculated according to ½×with^2×length. Body weight was determined on a standard digital scale.

Where [10] appears, read: Molt-3, time course, 48-72 h after incubation.
The mark [11] stands for this setting: Molt-3 cells, resistance experiment (FIG. 4B).

The structures appear in SMILES notation. Where two headings read alike, the source gives them in different places.

In general, IC50 refers to the concentration that gives 50% inhibition. Higher therefore signals weaker potency.

Sequence of MDR-1 p-glycoprotein (P08183 whole entry): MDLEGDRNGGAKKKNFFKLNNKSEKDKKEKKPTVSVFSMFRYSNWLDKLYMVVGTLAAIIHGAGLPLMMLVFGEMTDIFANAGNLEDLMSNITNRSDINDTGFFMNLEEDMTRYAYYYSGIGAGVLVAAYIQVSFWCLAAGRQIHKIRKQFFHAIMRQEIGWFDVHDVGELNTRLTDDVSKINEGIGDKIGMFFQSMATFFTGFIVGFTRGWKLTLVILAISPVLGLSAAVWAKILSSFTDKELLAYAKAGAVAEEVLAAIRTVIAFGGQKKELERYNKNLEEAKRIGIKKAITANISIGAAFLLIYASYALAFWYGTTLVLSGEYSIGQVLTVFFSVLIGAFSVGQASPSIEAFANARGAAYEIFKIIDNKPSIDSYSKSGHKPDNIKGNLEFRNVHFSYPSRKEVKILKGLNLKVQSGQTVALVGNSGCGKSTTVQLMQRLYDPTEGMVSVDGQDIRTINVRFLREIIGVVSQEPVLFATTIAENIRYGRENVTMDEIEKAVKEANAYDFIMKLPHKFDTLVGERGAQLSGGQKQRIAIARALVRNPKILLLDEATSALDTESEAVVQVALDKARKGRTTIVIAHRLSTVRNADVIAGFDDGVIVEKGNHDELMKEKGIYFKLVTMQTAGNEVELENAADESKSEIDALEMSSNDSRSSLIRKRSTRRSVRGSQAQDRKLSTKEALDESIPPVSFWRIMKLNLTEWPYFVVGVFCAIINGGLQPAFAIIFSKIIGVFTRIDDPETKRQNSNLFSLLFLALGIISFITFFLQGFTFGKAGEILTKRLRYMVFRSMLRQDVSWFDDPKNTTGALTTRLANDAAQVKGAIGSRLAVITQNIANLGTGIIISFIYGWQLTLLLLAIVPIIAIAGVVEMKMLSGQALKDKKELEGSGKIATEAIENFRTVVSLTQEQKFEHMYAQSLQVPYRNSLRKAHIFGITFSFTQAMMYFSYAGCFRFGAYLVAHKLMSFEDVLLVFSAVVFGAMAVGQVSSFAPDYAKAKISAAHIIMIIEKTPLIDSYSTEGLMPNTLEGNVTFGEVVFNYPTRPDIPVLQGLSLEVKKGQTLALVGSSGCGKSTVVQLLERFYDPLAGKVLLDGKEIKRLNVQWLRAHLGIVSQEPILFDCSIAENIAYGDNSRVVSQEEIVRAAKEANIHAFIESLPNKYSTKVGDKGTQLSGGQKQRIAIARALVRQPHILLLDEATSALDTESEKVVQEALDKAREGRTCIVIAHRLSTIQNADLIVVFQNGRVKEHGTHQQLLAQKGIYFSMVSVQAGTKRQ
Experimental for MDR-1 p-glycoprotein: Samples incubated with 2 μM cyclosporin A were used as positive controls (data not shown). Cell fluorescence was recorded using a FAC Sort flow cytometer (Becton Dickinson) and JC-1 signals were detected on the FL1-channel (530 nm filter) for analysis of the dye monomer.
Experimental for Molt-3/MDR-1 cells: Stable transfection of MDR-1: The MDR-1 cDNA was kindly provided in a pUC based plasmid by C. Baum, University of Hamburg. For mammalian expression, the MDR-1 cDNA was cloned into the bicistronic eukaryotic expression plasmid pIRESpuro using NotI and BamHI restriction sites. pMDR-IRESpuro was transfected into Molt-3 cells by electroporation (960 μF, 250V). Stable transfectants were selected with 300 ng/ml puromycin.
OD values were plotted as a function of drug concentration and the curves were integrated using the softmax software to obtain the IC50 concentration values.

On to `COc1cc(C2c3cc4c(cc3C(OC3OC5COC(C)OC5C(O)C3O)C3COC(=O)C23)OCO4)cc(OC)c1OC(=O)OCC1COC(C)(C)O1` (stereo not shown) [ProVP-16 I], for which the “IC50 fold lower than parent compound” value with SW480 colon carcinoma stood at 1000 fold. Also, the “induction of apoptosis (pre-G1 peak)” value with MOVP-3 cells was “very effective in inducing a steady increase in the pre-G1 peak”; in the data set on Molt-3 parental cells, “Induction of apoptosis was also demonstrated”. In addition, the kobs in [1] is reported as 0.923 ± 0.046 10^−3-min^−1; in data set [4], 48.89 ± 3.62 10^−3-min^−1; in [6] (pH 5.0-10.0, 37° C.), “no conversion”; in data set [6] (pH 11.8, 37° C.), 8.333 ± 0.50 10^−3-min^−1. For the same compound, the t1/2 in data set [1] is recorded as 750.8 min; in data set [4], 14.2 min; in data set [4] (listed as Prodrug I), 14.17 min. In addition, the IC50 in data set [2] came to 20 nM; in the data set on Molt-3 T-cell leukemia (setting [10]), 10 nM; with Molt-3 T-cell leukemia (setting [11]) it was 20 nM. The “resistance of MOVP-3 cells (IC50 MOVP-3÷IC50 Molt-3)” value in [2] (MOVP-3 vs Molt-3) is listed as “no significant difference”. The “onset of cytotoxic activity” value in the data set on Molt-3 T-cell leukemia (Molt-3, time of incubation) was over 24 h. The “cytotoxic effects at early incubation” value in the data set with Molt-3 T-cell leukemia (Molt-3, up to 12 h of incubation) is listed as “absence of cytotoxic effects”. Besides, the “response to proetoposides compared with etoposide” value in data set [3], in data set [5] and in [7] was “responded equally well” in each case. Also, in [6] (PBS (pH 7.4, 37° C.)), the “conversion in PBS” value is recorded as “no measurable conversion”. Further, in data set [6] (basic buffer conditions (pH <10.0)), the “stability under basic buffer conditions” value was “inert”. Besides, the “sensitivity / resistance of Molt-3/MDR-1 cells” value (shortened to “sensitivity / resistance”) with Molt-3/MDR-1 cells was “remained fully sensitive”. Further, the “effect on the decrease in FL-1 signal (JC-1 efflux)” value on MDR-1 p-glycoprotein is listed as “abrogated”. Further, the “lowest concentration inhibiting MDR-1 mediated efflux” value on MDR-1 p-glycoprotein (data not shown) was 10 µM. The “degradation of the glycoside moiety” value in data set [8] is “about 10%”. Moreover, the “time for conversion to ProVP-16 II” value in [8] is given as at most 2 h.

As for `CC[C@]1(O)C[C@@H]2CN(CCc3c([nH]c4ccccc34)[C@@](C(=O)OC)(c3cc4c(cc3OC)N(C)[C@H]3[C@@](O)(C(=O)OC)[C@H](OC(C)=O)[C@]5(CC)C=CCN6CC[C@]43[C@@H]65)C2)C1` [vinblastine], the “cross resistance of MOVP-3 cells” value in [2] was “cross resistance”. In the data set with Molt-3/MDR-1 cells, the “sensitivity / resistance” value is listed as “resistance”.

With `COc1cccc2c1C(=O)c1c(O)c3c(c(O)c1C2=O)C[C@@](O)(C(=O)CO)C[C@@H]3O[C@H]1C[C@H](N)[C@H](O)[C@H](C)O1` [doxorubicin], in data set [2], the “cross resistance of MOVP-3 cells” value is reported as “cross resistance”. Besides, in the data set with Molt-3/MDR-1 cells, the “sensitivity / resistance” value is “resistance”.

On to `COc1cc([C@@H]2c3cc4c(cc3[C@@H](O[C@@H]3O[C@@H]5CO[C@@H](C)O[C@H]5[C@H](O)[C@H]3O)[C@H]3COC(=O)[C@H]23)OCO4)cc(OC)c1O` [VP-16, etoposide, reference compound], for which the “induction of apoptosis (pre-G1 peak)” value in the data set with MOVP-3 cells is “ineffective to induce apoptosis”; with Molt-3 parental cells, “induce apoptosis in Molt-3 cells to a similar extent as ProVP-16 I and II”. Also, the IC50 in [2] came out at 2000 nM; in the data set on Molt-3 T-cell leukemia (setting [10]), 65 nM; in the data set with Molt-3 T-cell leukemia (setting [11]) it was 20 nM. Moreover, the resistance in vitro in data set [2] (MOVP-3 model with stably amplified MDR-1) is given as 100 ×. Besides, in data set [2], the “cross resistance of MOVP-3 cells” value is “cross resistance”. For the same compound, in data set [9] (defined by a decrease in body weight <20%), the maximum tolerated dose worked out at 20 mg/kg. For the same compound, the “mice with a weight loss >20%” value in data set [9] (mouse, in vivo) is given as 5/6. Also, in the data set with MOVP-3 primary tumors, the anti-tumor response result was “no anti-tumor response”. Also, the “transient average weight loss” value with MOVP-3 primary tumors was 20%. In the data set with Molt-3/MDR-1 cells, the “sensitivity / resistance” value was “resistance”. Moreover, the “effect on the decrease in FL-1 signal (JC-1 efflux)” value at MDR-1 p-glycoprotein is on record as “ineffective in modulating MDR-1 function”.

As to `N[C@@H](Cc1ccc(N(CCCl)CCCl)cc1)C(=O)O` [melphalan], the “cross resistance of MOVP-3 cells” value in data set [2] was “statistically significant”.

For the compound `CC(=O)O[C@H]1C(=O)[C@@]2(C)[C@H]([C@H](OC(=O)c3ccccc3)[C@]3(O)C[C@H](OC(=O)[C@H](O)[C@@H](NC(=O)c4ccccc4)c4ccccc4)C(C)=C1C3(C)C)[C@]1(OC(C)=O)CO[C@@H]1C[C@@H]2O` [paclitaxel], in data set [2], the “cross resistance of MOVP-3 cells” value is given as “cross resistance”. The “sensitivity / resistance” value with Molt-3/MDR-1 cells is listed as “resistance”.
